Tests used:
SETVI [1] = test: Preemergence herbicidal evaluation; assay type: in vivo; set-up: scale not given here
Method: (§1) The preemergence and postemergence herbicidal properties of certain compounds of the present invention are compared with certain compounds disclosed in U.S. Pat. Nos. 5,484,763 and 5,523,278. The evaluations are performed as described in Examples 185 and 186. Data in Tables V and VI are reported by the compound number given in Example 185 for the compounds of this invention or by comparative compound letter for the compounds disclosed in U.S. Pat. Nos. 5,484,763 and 5,523,278.

ABUTH [2] = test: Preemergence herbicidal evaluation; assay type: in vivo; set-up: scale not given here
Method: as §1

IPOSS [3] = test: Preemergence herbicidal evaluation; assay type: in vivo; set-up: scale not given here
Method: as §1

CHEAL [4] = test: Preemergence herbicidal evaluation; assay type: in vivo; set-up: scale not given here
Method: as §1

GALAP [5] = test: Preemergence herbicidal evaluation; assay type: in vivo; set-up: scale not given here
Method: as §1

ECHCG [6] = test: Preemergence herbicidal evaluation; assay type: in vivo; set-up: scale not given here
Method: as §1

AMBEL [7] = test: Preemergence herbicidal evaluation; assay type: in vivo; set-up: scale not given here
Method: as §1

ZEAMX [8] = test: Preemergence herbicidal evaluation; assay type: in vivo; set-up: scale not given here
Method: as §1

GLXMAW [9] = test: Preemergence herbicidal evaluation; assay type: in vivo; set-up: scale not given here
Method: as §1

CASOB [10] = test: Preemergence herbicidal evaluation; assay type: in vivo; set-up: scale not given here
Method: as §1

GALAP [11] = test: Postemergence herbicidal evaluation; assay type: in vivo
ORYSAT [12] = test: Postemergence herbicidal evaluation; assay type: in vivo, Oryza sativa
ZEAMX [13] = test: Postemergence herbicidal evaluation; assay type: in vivo
AMBEL [14] = test: Postemergence herbicidal evaluation; assay type: in vivo
GLXMAW [15] = test: Postemergence herbicidal evaluation; assay type: in vivo
CASOB [16] = test: Postemergence herbicidal evaluation; assay type: in vivo
CHEAL [17] = test: Postemergence herbicidal evaluation; assay type: in vivo
IPOSS [18] = test: Postemergence herbicidal evaluation; assay type: in vivo
SETVI [19] = test: Postemergence herbicidal evaluation; assay type: in vivo
ABUTH [20] = test: Postemergence herbicidal evaluation; assay type: in vivo
ECHCG [21] = test: Postemergence herbicidal evaluation; assay type: in vivo
ORYSAT [22] = test: Preemergence herbicidal evaluation; assay type: in vivo, Oryza sativa; set-up: scale not given here
Method: as §1

Cc1nsc2ccc(N3C(=O)C4=C(CCCC4)C3=O)cc12 [B]
herbicidal effect rating (SETVI [1]; 0.0313-0.0320 kg/ha): 0.0 | herbicidal effect rating (SETVI [1]; 0.0620-0.0630 kg/ha): 0.0 | herbicidal effect rating (SETVI [1]; 0.1250 kg/ha): 2.0 | herbicidal effect rating (SETVI [1]; 0.2500 kg/ha): 6.0 | herbicidal effect rating (SETVI [1]; 0.5000 kg/ha): 4.0 | herbicidal effect rating (ABUTH [2]; 0.0313-0.0320 kg/ha): 0.0 | herbicidal effect rating (ABUTH [2]; 0.0620-0.0630 kg/ha): 3.0 | herbicidal effect rating (ABUTH [2]; 0.2500 kg/ha): 2.0 | herbicidal effect rating (ABUTH [2]; 0.5000 kg/ha): 5.0 | herbicidal effect rating (IPOSS [3]; 0.0313-0.0320 kg/ha): 0.0 | herbicidal effect rating (IPOSS [3]; 0.0620-0.0630 kg/ha): 0.0 | herbicidal effect rating (IPOSS [3]; 0.1250 kg/ha): 0.0 | herbicidal effect rating (IPOSS [3]; 0.2500 kg/ha): 2.0 | herbicidal effect rating (IPOSS [3]; 0.5000 kg/ha): 5.0 | herbicidal effect rating (CHEAL [4]; 0.0313-0.0320 kg/ha): 9.0 | herbicidal effect rating (CHEAL [4]; 0.0620-0.0630 kg/ha): 6.0 | herbicidal effect rating (CHEAL [4]; 0.1250 kg/ha): 9.0 | herbicidal effect rating (CHEAL [4]; 0.2500 kg/ha): 9.0 | herbicidal effect rating (CHEAL [4]; 0.5000 kg/ha): 9.0 | herbicidal effect rating (GALAP [5]; 0.0313-0.0320 kg/ha): 0.0 | herbicidal effect rating (GALAP [5]; 0.0620-0.0630 kg/ha): 0.0 | herbicidal effect rating (GALAP [5]; 0.1250 kg/ha): 5.0 | herbicidal effect rating (GALAP [5]; 0.2500 kg/ha): 9.0 | herbicidal effect rating (GALAP [5]; 0.5000 kg/ha): 7.0 | herbicidal effect rating (ECHCG [6]; 0.0313-0.0320 kg/ha): 0.0 | herbicidal effect rating (ECHCG [6]; 0.0620-0.0630 kg/ha): 0.0 | herbicidal effect rating (ECHCG [6]; 0.1250 kg/ha): 3.0 | herbicidal effect rating (ECHCG [6]; 0.2500 kg/ha): 5.0 | herbicidal effect rating (ECHCG [6]; 0.5000 kg/ha): 5.0 | herbicidal effect rating (AMBEL [7]; 0.0313-0.0320 kg/ha): 0.0 | herbicidal effect rating (AMBEL [7]; 0.0620-0.0630 kg/ha): 0.0 | herbicidal effect rating (AMBEL [7]; 0.1250 kg/ha): 2.0 | herbicidal effect rating (AMBEL [7]; 0.2500 kg/ha): 3.0 | herbicidal effect rating (AMBEL [7]; 0.5000 kg/ha): 8.0 | herbicidal effect rating (ZEAMX [8]; 0.0313-0.0320 kg/ha): 0.0 | herbicidal effect rating (ZEAMX [8]; 0.0620-0.0630 kg/ha): 0.0 | herbicidal effect rating (ZEAMX [8]; 0.1250 kg/ha): 0.0 | herbicidal effect rating (ZEAMX [8]; 0.2500 kg/ha): 0.0 | herbicidal effect rating (ZEAMX [8]; 0.5000 kg/ha): 1.0 | herbicidal effect rating (GLXMAW [9]; 0.0313-0.0320 kg/ha): 0.0 | herbicidal effect rating (GLXMAW [9]; 0.0620-0.0630 kg/ha): 0.0 | herbicidal effect rating (GLXMAW [9]; 0.1250 kg/ha): 0.0 | herbicidal effect rating (GLXMAW [9]; 0.2500 kg/ha): 1.0 | herbicidal effect rating (GLXMAW [9]; 0.5000 kg/ha): 1.0 | herbicidal effect rating (CASOB [10]; 0.0313-0.0320 kg/ha): 0.0 | herbicidal effect rating (CASOB [10]; 0.0620-0.0630 kg/ha): 0.0 | herbicidal effect rating (CASOB [10]; 0.1250 kg/ha): 0.0 | herbicidal effect rating (CASOB [10]; 0.2500 kg/ha): 0.0 | herbicidal effect rating (CASOB [10]; 0.5000 kg/ha): 0.0 | herbicidal effect rating (GALAP [11]; 0.0157-0.0160 kg/ha): 5.0 | herbicidal effect rating (GALAP [11]; 0.0313-0.0320 kg/ha): 7.0 | herbicidal effect rating (GALAP [11]; 0.0625-0.0640 kg/ha): 7.0 | herbicidal effect rating (GALAP [11]; 0.1250 kg/ha): 7.0 | herbicidal effect rating (GALAP [11]; 0.2500 kg/ha): 8.0 | herbicidal effect rating (GALAP [11]; 0.5000 kg/ha): 8.0 | herbicidal effect rating (ORYSAT [12]; 0.0157-0.0160 kg/ha): 3.5 | herbicidal effect rating (ORYSAT [12]; 0.0313-0.0320 kg/ha): 4.0 | herbicidal effect rating (ORYSAT [12]; 0.0625-0.0640 kg/ha): 4.5 | herbicidal effect rating (ORYSAT [12]; 0.1250 kg/ha): 4.5 | herbicidal effect rating (ORYSAT [12]; 0.2500 kg/ha): 5.5 | herbicidal effect rating (ORYSAT [12]; 0.5000 kg/ha): 6.0 | herbicidal effect rating (ZEAMX [13]; 0.0157-0.0160 kg/ha): 5.0 | herbicidal effect rating (ZEAMX [13]; 0.0313-0.0320 kg/ha): 5.5 | herbicidal effect rating (ZEAMX [13]; 0.0625-0.0640 kg/ha): 5.0 | herbicidal effect rating (ZEAMX [13]; 0.1250 kg/ha): 5.5 | herbicidal effect rating (ZEAMX [13]; 0.2500 kg/ha): 6.0 | herbicidal effect rating (ZEAMX [13]; 0.5000 kg/ha): 5.5 | herbicidal effect rating (AMBEL [14]; 0.0157-0.0160 kg/ha): 2.0 | herbicidal effect rating (AMBEL [14]; 0.0313-0.0320 kg/ha): 6.0 | herbicidal effect rating (AMBEL [14]; 0.0625-0.0640 kg/ha): 8.0 | herbicidal effect rating (AMBEL [14]; 0.1250 kg/ha): 8.0 | herbicidal effect rating (AMBEL [14]; 0.2500 kg/ha): 9.0 | herbicidal effect rating (AMBEL [14]; 0.5000 kg/ha): 9.0 | herbicidal effect rating (GLXMAW [15]; 0.0157-0.0160 kg/ha): 5.5 | herbicidal effect rating (GLXMAW [15]; 0.0313-0.0320 kg/ha): 5.5 | herbicidal effect rating (GLXMAW [15]; 0.0625-0.0640 kg/ha): 5.5 | herbicidal effect rating (GLXMAW [15]; 0.1250 kg/ha): 6.0 | herbicidal effect rating (GLXMAW [15]; 0.2500 kg/ha): 7.0 | herbicidal effect rating (GLXMAW [15]; 0.5000 kg/ha): 7.5 | herbicidal effect rating (CASOB [16]; 0.0157-0.0160 kg/ha): 6.0 | herbicidal effect rating (CASOB [16]; 0.0313-0.0320 kg/ha): 7.0 | herbicidal effect rating (CASOB [16]; 0.0625-0.0640 kg/ha): 8.0 | herbicidal effect rating (CASOB [16]; 0.1250 kg/ha): 8.0 | herbicidal effect rating (CASOB [16]; 0.2500 kg/ha): 9.0 | herbicidal effect rating (CASOB [16]; 0.5000 kg/ha): 9.0 | herbicidal effect rating (CHEAL [17]; 0.0157-0.0160 kg/ha): 3.0 | herbicidal effect rating (CHEAL [17]; 0.0313-0.0320 kg/ha): 7.0 | herbicidal effect rating (CHEAL [17]; 0.0625-0.0640 kg/ha): 7.0 | herbicidal effect rating (CHEAL [17]; 0.1250 kg/ha): 9.0 | herbicidal effect rating (CHEAL [17]; 0.2500 kg/ha): 8.0 | herbicidal effect rating (CHEAL [17]; 0.5000 kg/ha): 9.0 | herbicidal effect rating (IPOSS [18]; 0.0157-0.0160 kg/ha): 6.0 | herbicidal effect rating (IPOSS [18]; 0.0313-0.0320 kg/ha): 7.0 | herbicidal effect rating (IPOSS [18]; 0.0625-0.0640 kg/ha): 8.0 | herbicidal effect rating (IPOSS [18]; 0.1250 kg/ha): 8.0 | herbicidal effect rating (IPOSS [18]; 0.2500 kg/ha): 8.0 | herbicidal effect rating (IPOSS [18]; 0.5000 kg/ha): 9.0 | herbicidal effect rating (SETVI [19]; 0.0157-0.0160 kg/ha): 0.0 | herbicidal effect rating (SETVI [19]; 0.0313-0.0320 kg/ha): 0.0 | herbicidal effect rating (SETVI [19]; 0.0625-0.0640 kg/ha): 2.0 | herbicidal effect rating (SETVI [19]; 0.1250 kg/ha): 4.0 | herbicidal effect rating (SETVI [19]; 0.2500 kg/ha): 5.0 | herbicidal effect rating (SETVI [19]; 0.5000 kg/ha): 5.0 | herbicidal effect rating (ABUTH [20]; 0.0157-0.0160 kg/ha): 8.0 | herbicidal effect rating (ABUTH [20]; 0.0313-0.0320 kg/ha): 8.0 | herbicidal effect rating (ABUTH [20]; 0.0625-0.0640 kg/ha): 9.0 | herbicidal effect rating (ABUTH [20]; 0.1250 kg/ha): 9.0 | herbicidal effect rating (ABUTH [20]; 0.2500 kg/ha): 9.0 | herbicidal effect rating (ABUTH [20]; 0.5000 kg/ha): 9.0 | herbicidal effect rating (ECHCG [21]; 0.0157-0.0160 kg/ha): 0.0 | herbicidal effect rating (ECHCG [21]; 0.0313-0.0320 kg/ha): 2.0 | herbicidal effect rating (ECHCG [21]; 0.0625-0.0640 kg/ha): 2.0 | herbicidal effect rating (ECHCG [21]; 0.1250 kg/ha): 4.0 | herbicidal effect rating (ECHCG [21]; 0.2500 kg/ha): 5.0 | herbicidal effect rating (ECHCG [21]; 0.5000 kg/ha): 6.0 | herbicidal effect rating (ORYSAT [22]; 0.0313-0.0320 kg/ha): 0.0 | herbicidal effect rating (ORYSAT [22]; 0.0620-0.0630 kg/ha): 0.0 | herbicidal effect rating (ORYSAT [22]; 0.1250 kg/ha): 2.0 | herbicidal effect rating (ORYSAT [22]; 0.2500 kg/ha): 2.0 | herbicidal effect rating (ORYSAT [22]; 0.5000 kg/ha): 4.0
